Tests used:
Assay type in all cases: cell-based
Hsa-GABA α5β2γ2 = Hsa-GABA α5β2γ2 (Homo sapiens, UniProt P18507+P31644+P47870); assay: Two-electrode voltage-clamp concentration-activation by the natural agonist, receptor expressed in Xenopus oocytes; parameters: The corresponding open reading frames (ORF) were cloned into the pT7-TS transcription vector; expressed in transfected cells; host or cells: Xenopus laevis oocytes, cRNA injection; details: concentration-activation curve
Description: (§1) Complementary DNA (cDNA) encoding for the human GABAA proteins α1 (NM_001127645.2), α2 (NM_001377146.1), α3 (KJ620007.1), α4 (NM_000809.4), α5 (NM_000810.4), α6 (NM_000811.3), β2 (XM_054352312.1), β3 (M82919.1), γ2 (NM_000816.3) and δ (NM_000815.5) were ordered from Genewiz (www.genewiz.com; Leipzig, Germany); for each gene, GenBank accession numbers are provided in parentheses. When necessary, silent mutations were introduced to break NheI or XhoI internal restriction sites. The corresponding open reading frames (ORF) were cloned into the pT7-TS transcription vector (introducing X. laevis β-globin untranslated cDNA to the 5’ and 3’ ends of the gene), following a procedure described in detail in a previous publication. The same process was used to obtain cDNA encoding canine GABAA proteins α4 (XM_025435560.1), α6 (XM_022417729.1) and δ (XM_005620414.2). Gene α2 (XM_025435664.1), α3 (XM_549343.5), α5 (XM_545805.6) and β3 (XM_025437408.1) were obtained by PCR; GenBank reference accession numbers are provided in parentheses. RNA extraction, cDNA synthesis and PCR amplification were performed as described previously. Total RNA was extracted from a piece of dog brain (Beagle breed; Canis lupus familiaris) from which 1 µg of total RNA (DNase-treated) was reverse-transcribed to cDNA using a (dT)30 primer and SuperScript III Reverse Transcriptase (Invitrogen, Thermo Fisher Scientific, Waltham, MA, USA). Gene-specific primers (Additional file 1: Table S1) were designed using Primer 3 software (http://frodo.wi.mit.edu/). […] The cycling conditions were: 98 °C for 30 s; then 38 cycles of 98 °C for 10 s, 58 °C for 30 s and 72 °C for 90 s; followed by 72 °C for 5 min. The dog subunits α1 (XM_546261.5), β2 (XM_014113040.1) and γ2 (XM_546259.5) had been previously amplified and described in a study by Rufener et al..
(§2) Defoliculated X. laevis oocytes ordered from Ecocyte Bioscience (Dortmund, Germany) were microinjected with 15–25 nl of cRNA solution (5–50 ng/μl) per oocyte using an automated injector (Roboinject; Multi Channel Systems MCS GmbH, Reutlingen, Germany) and then incubated at 18 °C. All recordings were made 1–5 days post-cRNA injection and were performed at 18 ± 4 °C. Cells were superfused with OR2 medium (NaCl 88 mM, KCl 2.5 mM, HEPES 5 mM, CaCl2•2H2O 1.8 mM, MgCl2•7H2O 1.0 mM, pH 7.4). To ensure that γ2 subunits were integrated into the heteropentamers, we injected fivefold more γ2 than the other subunit cRNAs. Diazepam is a positive allosteric modulator of GABAR only if γ2 subunits are present. Therefore, we used this method to confirm the presence of human and dog GABAA receptor containing the γ2 subunit.
(§3) Voltage-clamp measurements were performed as described by Rufener et al.. Oocytes were impaled with two electrodes filled with 3 M KCl, and their membrane potentials were maintained at − 80 mV throughout the experiment. […] Recordings were performed using an automated process equipped with standard two-electrode voltage-clamp configuration (HiClamp system; Multi Channel Systems MCS GmbH). Data were filtered at 10 Hz, captured at 100 Hz and analyzed using proprietary data acquisition and analysis software in MATLAB (Mathworks Inc., Natick, MA, USA). Additional analyses were performed using Excel (Microsoft, Redmond, WA, USA). […] Graphing the maximum inward currents against the log of agonist concentration produces typical concentration-activation and concentration-inhibition curves, which can be accurately described using individual Hill equations.

Hsa-GABA α6β2γ2 = Hsa-GABA α6β2γ2 (Homo sapiens, UniProt P18507+P47870+Q16445); assay: as above; parameters: The corresponding open reading frames (ORF) were cloned into the pT7-TS transcription vector; expressed in transfected cells; host or cells: Xenopus laevis oocytes, cRNA injection; details: concentration-activation curve
Hsa-GABA α6β2γ2, sequence (Q16445 20-453): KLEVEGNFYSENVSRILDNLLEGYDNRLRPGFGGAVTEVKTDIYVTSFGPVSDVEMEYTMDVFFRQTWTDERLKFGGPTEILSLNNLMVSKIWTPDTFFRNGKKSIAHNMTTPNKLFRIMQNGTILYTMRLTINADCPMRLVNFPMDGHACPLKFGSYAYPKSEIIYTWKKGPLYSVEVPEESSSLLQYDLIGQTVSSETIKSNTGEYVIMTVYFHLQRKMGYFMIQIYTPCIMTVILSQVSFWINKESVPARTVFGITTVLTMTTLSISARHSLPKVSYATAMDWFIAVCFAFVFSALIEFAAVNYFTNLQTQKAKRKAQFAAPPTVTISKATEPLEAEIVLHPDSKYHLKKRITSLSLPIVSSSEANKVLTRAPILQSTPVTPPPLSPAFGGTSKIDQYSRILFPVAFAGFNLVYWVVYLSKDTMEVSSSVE
Hsa-GABA α6β2γ2, sequence (P47870 26-474 isoform P47870-1 limits assumed): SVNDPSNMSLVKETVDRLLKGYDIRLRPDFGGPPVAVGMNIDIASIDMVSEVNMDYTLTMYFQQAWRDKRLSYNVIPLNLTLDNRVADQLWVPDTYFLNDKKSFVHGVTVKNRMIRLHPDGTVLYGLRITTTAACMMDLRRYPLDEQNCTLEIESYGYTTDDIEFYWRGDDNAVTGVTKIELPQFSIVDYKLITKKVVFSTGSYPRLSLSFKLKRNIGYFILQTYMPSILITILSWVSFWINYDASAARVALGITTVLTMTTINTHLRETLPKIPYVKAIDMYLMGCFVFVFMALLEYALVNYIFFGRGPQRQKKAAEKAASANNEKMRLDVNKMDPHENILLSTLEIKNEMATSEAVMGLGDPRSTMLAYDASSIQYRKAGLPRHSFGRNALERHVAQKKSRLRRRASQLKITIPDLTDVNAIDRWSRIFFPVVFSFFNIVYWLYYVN
Hsa-GABA α6β2γ2, sequence (P18507 40-467 isoform P18507-1 limits assumed): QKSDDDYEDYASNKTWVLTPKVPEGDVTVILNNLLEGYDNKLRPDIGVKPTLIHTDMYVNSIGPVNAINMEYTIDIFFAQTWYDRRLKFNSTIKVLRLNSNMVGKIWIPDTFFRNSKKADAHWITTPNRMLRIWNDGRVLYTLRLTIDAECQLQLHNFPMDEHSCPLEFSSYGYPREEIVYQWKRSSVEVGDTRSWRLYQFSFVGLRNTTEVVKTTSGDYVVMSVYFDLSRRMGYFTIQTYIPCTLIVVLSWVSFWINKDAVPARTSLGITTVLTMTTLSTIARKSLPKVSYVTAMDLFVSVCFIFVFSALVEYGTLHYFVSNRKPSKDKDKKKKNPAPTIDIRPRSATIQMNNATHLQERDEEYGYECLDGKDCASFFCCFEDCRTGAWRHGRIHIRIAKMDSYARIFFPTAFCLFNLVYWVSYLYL
Description: as §1, §2, §3

Hsa-GABA α3β2γ2 = Hsa-GABA α3β2γ2 (Homo sapiens, UniProt P18507+P34903+P47870); assay: as above; parameters: The corresponding open reading frames (ORF) were cloned into the pT7-TS transcription vector; expressed in transfected cells; host or cells: Xenopus laevis oocytes, cRNA injection; details: concentration-activation curve
Hsa-GABA α3β2γ2, sequence (P34903 29-492): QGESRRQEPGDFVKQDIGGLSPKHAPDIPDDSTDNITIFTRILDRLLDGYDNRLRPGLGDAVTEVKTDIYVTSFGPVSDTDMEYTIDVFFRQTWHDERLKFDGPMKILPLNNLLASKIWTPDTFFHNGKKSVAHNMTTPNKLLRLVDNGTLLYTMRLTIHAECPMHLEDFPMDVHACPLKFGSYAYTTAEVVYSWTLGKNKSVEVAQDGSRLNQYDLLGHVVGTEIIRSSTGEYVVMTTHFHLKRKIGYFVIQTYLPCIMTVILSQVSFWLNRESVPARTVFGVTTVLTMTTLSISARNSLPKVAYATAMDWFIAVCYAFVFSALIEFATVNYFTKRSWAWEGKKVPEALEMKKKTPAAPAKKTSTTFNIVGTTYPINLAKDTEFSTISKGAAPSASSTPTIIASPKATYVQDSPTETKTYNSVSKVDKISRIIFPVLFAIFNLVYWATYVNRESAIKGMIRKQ
Hsa-GABA α3β2γ2, sequence (P47870 26-474 isoform P47870-1 limits assumed): as the sequence (P47870 26-474 isoform P47870-1 limits assumed) above
Hsa-GABA α3β2γ2, sequence (P18507 40-467 isoform P18507-1 limits assumed): as the sequence (P18507 40-467 isoform P18507-1 limits assumed) above
Description: as §1, §2, §3

Hsa-GABA α1β2γ2 = Hsa-GABA α1β2γ2 (Homo sapiens, UniProt P14867+P18507+P47870); assay: as above; parameters: The corresponding open reading frames (ORF) were cloned into the pT7-TS transcription vector; expressed in transfected cells; host or cells: Xenopus laevis oocytes, cRNA injection; details: concentration-activation curve
Hsa-GABA α1β2γ2, sequence (P14867 28-456): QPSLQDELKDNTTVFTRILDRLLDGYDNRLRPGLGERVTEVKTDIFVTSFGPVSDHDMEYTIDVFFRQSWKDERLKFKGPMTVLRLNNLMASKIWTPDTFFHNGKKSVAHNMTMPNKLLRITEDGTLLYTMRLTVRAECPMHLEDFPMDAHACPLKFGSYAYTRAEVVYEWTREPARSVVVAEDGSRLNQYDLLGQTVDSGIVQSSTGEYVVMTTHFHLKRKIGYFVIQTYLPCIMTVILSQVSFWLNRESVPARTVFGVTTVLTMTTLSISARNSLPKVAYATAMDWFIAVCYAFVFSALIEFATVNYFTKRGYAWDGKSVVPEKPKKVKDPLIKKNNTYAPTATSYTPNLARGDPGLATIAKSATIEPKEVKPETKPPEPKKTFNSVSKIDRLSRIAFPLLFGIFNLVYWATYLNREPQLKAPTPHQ
Hsa-GABA α1β2γ2, sequence (P47870 26-474 isoform P47870-1 limits assumed): as the sequence (P47870 26-474 isoform P47870-1 limits assumed) above
Hsa-GABA α1β2γ2, sequence (P18507 40-467 isoform P18507-1 limits assumed): as the sequence (P18507 40-467 isoform P18507-1 limits assumed) above
Description: as §1, §2, §3

Hsa-GABAR = assay: Voltage-clamp concentration-activation, summary over the six human receptors; details: concentration-activation curves
Description: as §2
Voltage-clamp measurements were performed as described by Rufener et al.. Oocytes were impaled with two electrodes filled with 3 M KCl, and their membrane potentials were maintained at − 80 mV throughout the experiment. […] Recordings were performed using an automated process equipped with standard two-electrode voltage-clamp configuration (HiClamp system; Multi Channel Systems MCS GmbH). Data were filtered at 10 Hz, captured at 100 Hz and analyzed using proprietary data acquisition and analysis software in MATLAB (Mathworks Inc., Natick, MA, USA). […]

Hsa-GABA α5β2γ2, sequence (P31644 32-462): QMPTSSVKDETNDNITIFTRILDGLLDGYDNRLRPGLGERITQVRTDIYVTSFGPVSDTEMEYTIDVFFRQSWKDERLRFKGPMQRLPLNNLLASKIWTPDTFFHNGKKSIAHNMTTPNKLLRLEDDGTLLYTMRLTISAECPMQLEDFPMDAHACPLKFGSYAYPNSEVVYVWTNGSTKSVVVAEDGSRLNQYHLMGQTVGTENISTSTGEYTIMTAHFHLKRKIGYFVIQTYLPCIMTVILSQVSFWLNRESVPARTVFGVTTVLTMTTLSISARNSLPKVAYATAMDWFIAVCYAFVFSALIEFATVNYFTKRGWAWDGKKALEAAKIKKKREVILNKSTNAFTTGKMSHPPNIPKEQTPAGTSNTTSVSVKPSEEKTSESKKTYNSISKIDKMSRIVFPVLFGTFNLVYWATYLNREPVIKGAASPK
Hsa-GABA α5β2γ2, sequence (P47870 26-474 isoform P47870-1 limits assumed): as the sequence (P47870 26-474 isoform P47870-1 limits assumed) above
Hsa-GABA α5β2γ2, sequence (P18507 40-467 isoform P18507-1 limits assumed): as the sequence (P18507 40-467 isoform P18507-1 limits assumed) above

NCCCC(=O)O [GABA, gamma-aminobutyric acid]
nH (Hill coefficient) (Hsa-GABA α5β2γ2): 1.1
nH (Hill coefficient) (Hsa-GABA α6β2γ2): 1.1
nH (Hill coefficient) (Hsa-GABA α3β2γ2): 1.2
nH (Hill coefficient) (Hsa-GABA α1β2γ2): 1.7
Hill coefficients over the six Hsa-GABAR (Hsa-GABAR): higher than 1

Reference: PMC12144822 (Parasites & Vectors, 2025)
